Results reported in US20040242886A1, “Monocyclic diazodioxide based Bcl-2 protein antagonists related applications” (priority 2003, published 2004).
Where two headings read alike, the source gives them in different places.

What was measured:
[1] = test system: Bcl-2 and Bcl XL; conditions: literature value, cited from earlier work
[2] = test system: cell; conditions: cited from earlier work
[3] = test system: HL60, human leukemic cells expressing high Bcl-2 and low Bcl-XL levels; assay: Acute cytotoxicity (apoptotic activity), Alamar Blue viability, HL-60 cells; assay type: cell-based; conditions: Homo sapiens, HL-60, 4 h; read-out: LC 50 (μM) HL-60
Protocol: (§1) The biological activity of the compounds provided herein were assessed in cellular system by the method similar to the one described by Amundson et al. (Amundson, S. A. et al, Cancer Research 2000, 60, 6101-6110), which is incorporated herein by reference in its entirety. The compounds were tested for acute cytotoxicity (apoptotic activity) using two human cancer cell lines expressing high levels of either Bcl-2 or BCl-XL. HL60, human leukemic cells expressing high Bcl-2 and low BCl-XL levels, and A549 human lung cells expressing low Bcl-2 and high BCl-XL levels, were incubated with the compounds at concentrations between 0.5 and 1000 μg/mL for 4 hours at 37° C., 5% CO2. The number of viable cells were measured by mitochondrial transformation of Alamar Blue to a fluorescent dye. LC50 values for each test compound and controls are provided in the individual examples that follow.
(§2) The compounds provided herein were tested for acute cytoxicity (apoptotic activity) using two human cancer cell lines expressing high levels of either Bcl-2 or BCl-XL. HL-60 cells expressing high Bcl-2 and low Bcl-XL levels, and A549 human lung cells expressing low Bcl-2 and high Bcl-XL levels were incubated with the compounds provided herein at concentrations between 0.5 and 1000 μg/mL for 4 hours at 37° C., 5% CO2. The number of viable cells were measured by mitochondrial transformation of Alamar Blue to a fluorescent dye. As negative controls, the compounds were tested against the cell lines with low levels of Bcl-2 expression, viz., MDA-453 cells. LC50 values for each compound and controls were determined.

[4] = test system: A549 human lung cells expressing low Bcl-2 and high Bcl-XL levels; assay: Acute cytotoxicity (apoptotic activity), Alamar Blue viability, A549 cells; assay type: cell-based; conditions: Homo sapiens, A549, 4 h; read-out: LC 50 (μM) A549
Protocol: as §1, §2

SMILES: CC(C)Cc1cc(-c2ccc(-c3ccc(OCC(=O)O)c(CC(C)C)c3)c(Cc3cccc4ccccc34)c2)ccc1CCC(=O)O [compound 7]
- IC50 ([1]; Bcl-2 antagonist): 0.114 µM

SMILES: O=C(Nc1cc(S(=O)(=O)c2ccc(Cl)cc2)ccc1Cl)c1cc(Cl)cc(I)c1O [compound 6, reference compound]
- CC50 ([2]; read-out: LC50 (cell), cell line not specified, literature value): ~30 µM
- CC50 [3]: < 50 µM
- IC50 ([1]; protein not specified): 3.3 µM
- CC50 [4]: > 200 µM

SMILES: CCCC[C@H]1C(=O)O[C@H](C)[C@H](NC(=O)c2cccc(NC=O)c2O)C(=O)O[C@@H](C)[C@@H]1OC(=O)CC(C)C [compound 2]
- CC50 [2]: 1.2 µM
